According to the NIST ThermoML archive (doi:10.1021/je800110r):
“And” between values parts separate entries of the source, which are not always exact repeats. Equal entries are not always repeated.

Conditions: Liquid, Vibrating tube method

CCCCCCCCCC [decane]
Conditions	mass density
303.16 K, 24314 kPa	740.3 kg/m3
303.16 K, 24549 kPa	740.5 kg/m3
303.16 K, 24602 kPa	740.4 kg/m3
303.16 K, 24630 kPa	740.5 kg/m3
303.16 K, 24682 kPa	740.5 kg/m3
303.16 K, 24710 kPa	740.6 kg/m3
303.16 K, 24755 kPa	740.6 kg/m3
303.16 K, 24776 kPa	740.5 kg/m3
303.16 K, 25088 kPa	740.7 kg/m3
303.16 K, 25114 kPa	740.9 kg/m3
303.16 K, 25147 kPa	740.9 kg/m3
303.16 K, 25173 kPa	740.9 kg/m3
303.16 K, 25208 kPa	740.9 kg/m3
303.16 K, 25234 kPa	740.9 kg/m3
303.16 K, 25263 kPa	740.9 kg/m3
303.16 K, 25293 kPa	741 kg/m3
303.16 K, 25324 kPa	740.9 kg/m3
303.16 K, 25354 kPa	741.1 kg/m3
303.16 K, 25385 kPa	741.1 kg/m3
303.16 K, 25420 kPa	741.1 kg/m3
303.16 K, 25450 kPa	741 kg/m3
303.16 K, 25481 kPa	741.1 kg/m3
303.16 K, 25524 kPa	741.1 kg/m3
303.16 K, 25559 kPa	741.1 kg/m3
303.16 K, 25586 kPa	741.1 kg/m3
303.16 K, 25617 kPa	741.1 kg/m3
303.16 K, 25802 kPa	741.3 kg/m3
303.17 K, 10063 kPa	730.2 kg/m3
303.17 K, 10074 kPa	730.3 kg/m3
313.14 K, 1292 kPa	715.7 kg/m3
313.14 K, 1332 kPa	715.8 kg/m3
313.14 K, 1362 kPa	715.8 kg/m3
313.14 K, 1410 kPa	715.8 kg/m3
313.14 K, 1449 kPa	715.7 kg/m3
313.14 K, 1483 kPa	715.9 kg/m3
313.14 K, 1531 kPa	715.8 kg/m3
313.14 K, 1584 kPa	715.9 kg/m3
313.14 K, 1629 kPa	716 kg/m3
313.14 K, 1669 kPa	716 kg/m3
313.14 K, 1710 kPa	716.1 kg/m3
313.14 K, 1760 kPa	716.1 kg/m3
313.14 K, 1825 kPa	716.1 kg/m3
313.14 K, 1889 kPa	716.2 kg/m3
313.14 K, 1951 kPa	716.3 kg/m3
313.14 K, 2000 kPa	716.3 kg/m3
313.14 K, 2044 kPa	716.3 kg/m3
313.14 K, 2096 kPa	716.3 kg/m3
313.14 K, 2138 kPa	716.4 kg/m3
313.14 K, 2175 kPa	716.4 kg/m3
313.14 K, 2217 kPa	716.4 kg/m3
313.14 K, 2260 kPa	716.5 kg/m3
313.14 K, 2304 kPa	716.5 kg/m3
313.14 K, 2364 kPa	716.6 kg/m3
313.14 K, 2419 kPa	716.7 kg/m3
313.14 K, 2474 kPa	716.7 kg/m3
313.14 K, 2523 kPa	716.8 kg/m3
313.14 K, 2591 kPa	716.7 kg/m3
313.14 K, 2653 kPa	716.8 kg/m3
313.14 K, 2699 kPa	716.8 kg/m3
313.14 K, 2782 kPa	717 kg/m3
313.14 K, 2826 kPa	717.1 kg/m3
313.14 K, 2854 kPa	717 kg/m3
313.14 K, 2900 kPa	716.9 kg/m3
313.14 K, 2941 kPa	717.2 kg/m3
313.14 K, 2970 kPa	717 kg/m3
313.14 K, 3000 kPa	717.1 kg/m3
313.14 K, 3048 kPa	717.2 kg/m3
313.14 K, 3086 kPa	717.2 kg/m3
313.14 K, 3137 kPa	717.3 kg/m3
313.14 K, 3192 kPa	717.3 kg/m3
313.14 K, 3234 kPa	717.4 kg/m3
313.14 K, 3277 kPa	717.4 kg/m3
313.14 K, 3305 kPa	717.4 kg/m3
313.14 K, 3306 kPa	717.5 kg/m3
313.14 K, 3307 kPa	717.5 kg/m3
313.14 K, 3322 kPa	717.5 kg/m3
313.14 K, 3343 kPa	717.4 kg/m3
313.14 K, 3360 kPa	717.4 kg/m3
313.14 K, 3378 kPa	717.5 kg/m3
313.14 K, 3404 kPa	717.4 kg/m3
313.14 K, 3422 kPa	717.5 kg/m3
313.14 K, 3447 kPa	717.5 kg/m3
313.14 K, 3468 kPa	717.6 kg/m3
313.14 K, 3499 kPa	717.6 kg/m3
313.14 K, 3518 kPa	717.6 kg/m3
313.14 K, 3549 kPa	717.7 kg/m3
313.14 K, 3576 kPa	717.6 kg/m3
313.14 K, 3598 kPa	717.8 kg/m3
313.14 K, 3629 kPa	717.7 kg/m3
313.14 K, 3654 kPa	717.7 kg/m3
313.14 K, 3674 kPa	717.8 kg/m3
313.14 K, 3693 kPa	717.8 kg/m3
313.14 K, 3713 kPa	717.8 kg/m3
313.14 K, 3739 kPa	717.8 kg/m3
313.14 K, 3768 kPa	717.8 kg/m3
313.14 K, 3821 kPa	717.9 kg/m3
313.14 K, 3843 kPa	718 kg/m3
313.14 K, 3850 kPa	717.8 kg/m3
313.14 K, 3853 kPa	717.9 kg/m3
313.14 K, 3854 kPa	717.9 kg/m3
313.14 K, 3856 kPa	717.8 kg/m3
313.14 K, 3858 kPa	717.9 kg/m3
313.14 K, 3860 kPa	717.9 kg/m3
313.14 K, 3862 kPa	717.9 kg/m3
313.14 K, 3864 kPa	717.9 kg/m3
313.14 K, 3865 kPa	717.9 kg/m3 and 717.8 kg/m3
313.14 K, 3876 kPa	717.9 kg/m3
313.14 K, 3895 kPa	718 kg/m3
313.14 K, 3915 kPa	718 kg/m3
313.14 K, 3933 kPa	718.1 kg/m3
313.14 K, 3949 kPa	717.9 kg/m3
313.14 K, 3970 kPa	718 kg/m3
313.14 K, 3989 kPa	718.1 kg/m3
313.14 K, 4003 kPa	718.1 kg/m3
313.14 K, 4028 kPa	718.1 kg/m3
313.14 K, 4048 kPa	718 kg/m3
313.14 K, 4070 kPa	718.1 kg/m3
313.14 K, 4098 kPa	718.1 kg/m3
313.14 K, 4121 kPa	718.1 kg/m3
313.14 K, 4141 kPa	718.2 kg/m3
313.14 K, 4159 kPa	718.2 kg/m3
313.14 K, 4186 kPa	718.2 kg/m3
313.14 K, 4203 kPa	718.3 kg/m3
313.14 K, 4224 kPa	718.3 kg/m3
313.14 K, 4245 kPa	718.3 kg/m3
313.14 K, 4267 kPa	718.3 kg/m3
313.14 K, 4287 kPa	718.2 kg/m3
313.14 K, 4309 kPa	718.3 kg/m3
313.14 K, 4328 kPa	718.3 kg/m3
313.14 K, 4357 kPa	718.4 kg/m3
313.14 K, 4386 kPa	718.4 kg/m3
313.14 K, 4407 kPa	718.4 kg/m3
313.14 K, 4434 kPa	718.3 kg/m3
313.14 K, 4451 kPa	718.4 kg/m3
313.14 K, 4477 kPa	718.5 kg/m3
313.14 K, 4494 kPa	718.5 kg/m3
313.14 K, 4509 kPa	718.5 kg/m3
